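Interpolation was linear, between the two tested concentrations surrounding the appropriate level; five concentrations were tested over 48 hours in 96-well plates. TGI: total growth inhibition.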
Columns and labels:
Assay in all cases: DTP human tumour cell line panel, 48 h
[1] = tested on: 786-0 renal
[2] = tested on: A549 NSCLC
[3] = tested on: ACHN renal
[4] = tested on: CAKI-1 renal
[5] = tested on: CCRF-CEM leukemia
[6] = tested on: DLD-1 colon
[7] = tested on: DMS 114 small cell lung
[8] = tested on: EKVX NSCLC
[9] = tested on: HCC-2998 colon
[10] = tested on: HCT-116 colon
[11] = tested on: HCT-15 colon
[12] = tested on: HL-60(TB) leukemia
[13] = tested on: HOP-18 NSCLC
[14] = tested on: HOP-62 NSCLC
[15] = tested on: HOP-92 NSCLC
[16] = tested on: HT29 colon
[17] = tested on: IGROV1 ovarian
[18] = tested on: K-562 leukemia
[19] = tested on: KM12 colon
[20] = tested on: LOX IMVI melanoma
[21] = tested on: LXFL 529 NSCLC
[22] = tested on: M14 melanoma
[23] = tested on: M19-MEL melanoma
[24] = tested on: MALME-3M melanoma
[25] = tested on: MOLT-4 leukemia
[26] = tested on: NCI-H226 lung
[27] = tested on: NCI-H23 lung
[28] = tested on: NCI-H460 lung
[29] = tested on: NCI-H522 lung
[30] = tested on: OVCAR-3 ovarian
[31] = tested on: OVCAR-4 ovarian
[32] = tested on: OVCAR-5 ovarian
[33] = tested on: OVCAR-8 ovarian
[34] = tested on: RPMI-8226 leukemia
[35] = tested on: RXF 393 renal
[36] = tested on: RXF-631 renal
[37] = tested on: SF-268 CNS
[38] = tested on: SF-295 CNS
[39] = tested on: SF-539 CNS
[40] = tested on: SK-MEL-2 melanoma
[41] = tested on: SK-MEL-28 melanoma
[42] = tested on: SK-MEL-5 melanoma
[43] = tested on: SK-OV-3 ovarian
[44] = tested on: SN12C renal
[45] = tested on: SNB-19 CNS
[46] = tested on: SR leukemia
[47] = tested on: SW-620 colon
[48] = tested on: TK-10 renal
[49] = tested on: U251 CNS
[50] = tested on: UACC-257 melanoma
[51] = tested on: UACC-62 melanoma
[52] = tested on: UO-31 renal
[53] = tested on: XF 498 CNS
[54] = tested on: COLO 205 colon
[55] = tested on: DMS 273 small cell lung
[56] = tested on: KM20L2 colon
[57] = tested on: SNB-75 CNS
[58] = tested on: SNB-78 CNS

Measured: TGI

CCOC(=O)C(=O)Nc1ccc([N+](=O)[O-])cc1C#N
not listed: [54] | [55] | [56] | [57] | [58]
> 100 µM: all other assays above

Cc1ccc(C2=NN(C)COC2C(F)(F)F)cc1 (stereo not drawn)
not listed: [20] | [48] | [53]
> 100 µM: all other assays above

— PubChem BioAssay (NCI)
